Patent US20200069648A1, “HALOALLYLAMINE PYRAZOLE DERIVATIVE INHIBITORS OF LYSYL OXIDASES AND USES THEREOF” (Pharmaxis Ltd., priority 2017, published 2020)
Structures can show the parent of a compound that is named as a salt.

Key:
Recombinant human MAO-B = target: T1, Recombinant human MAO-B (Homo sapiens, UniProt P27338); assay: Human recombinant MAO-B inhibition; type: biochemical; details: benzylamine 100 μM
T1 construct: purchased Sigma Aldrich
T1 sequence (P27338 1-520): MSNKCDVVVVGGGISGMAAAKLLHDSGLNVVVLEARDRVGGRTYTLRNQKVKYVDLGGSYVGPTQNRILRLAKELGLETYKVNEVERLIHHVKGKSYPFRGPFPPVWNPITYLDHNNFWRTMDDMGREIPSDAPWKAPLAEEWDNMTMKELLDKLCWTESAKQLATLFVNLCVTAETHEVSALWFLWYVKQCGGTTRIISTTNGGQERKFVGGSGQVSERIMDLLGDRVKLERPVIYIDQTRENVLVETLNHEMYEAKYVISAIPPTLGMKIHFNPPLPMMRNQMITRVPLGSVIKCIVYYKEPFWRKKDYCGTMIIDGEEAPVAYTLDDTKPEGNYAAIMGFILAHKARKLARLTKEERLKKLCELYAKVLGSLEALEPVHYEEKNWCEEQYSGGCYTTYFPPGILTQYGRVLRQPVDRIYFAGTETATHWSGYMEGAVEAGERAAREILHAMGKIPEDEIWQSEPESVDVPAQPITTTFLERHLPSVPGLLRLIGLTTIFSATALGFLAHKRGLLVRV
Description: Method to Determine the Ability of Compounds of Formula I to Inhibit Human Recombinant MAO-B
The specificity of the compounds of this invention was tested by determining their ability to inhibit MAO-B activities in vitro. Recombinant human MAO-B (0.06 mg/mL; Sigma Aldrich) was used as source of MAO-B enzyme activities. The assay was performed in a similar way as for human SSAO/VAP-1 (Example 46) except, the substrate benzylamine was used at 100 μM.

[1] = target: T2, human recombinant SSAO/VAP-1 (Homo sapiens, UniProt Q16853); assay: Human recombinant SSAO/VAP-1 amine oxidase inhibition; type: biochemical; details: 30 min preincubation at 37° C., 600 μM benzylamine
T2 construct: a cloned cDNA template corresponding to residues 34-763 of human SSAO/VAP-1; TEV cleavage site (N); made in house
T2 sequence (Q16853 34-763): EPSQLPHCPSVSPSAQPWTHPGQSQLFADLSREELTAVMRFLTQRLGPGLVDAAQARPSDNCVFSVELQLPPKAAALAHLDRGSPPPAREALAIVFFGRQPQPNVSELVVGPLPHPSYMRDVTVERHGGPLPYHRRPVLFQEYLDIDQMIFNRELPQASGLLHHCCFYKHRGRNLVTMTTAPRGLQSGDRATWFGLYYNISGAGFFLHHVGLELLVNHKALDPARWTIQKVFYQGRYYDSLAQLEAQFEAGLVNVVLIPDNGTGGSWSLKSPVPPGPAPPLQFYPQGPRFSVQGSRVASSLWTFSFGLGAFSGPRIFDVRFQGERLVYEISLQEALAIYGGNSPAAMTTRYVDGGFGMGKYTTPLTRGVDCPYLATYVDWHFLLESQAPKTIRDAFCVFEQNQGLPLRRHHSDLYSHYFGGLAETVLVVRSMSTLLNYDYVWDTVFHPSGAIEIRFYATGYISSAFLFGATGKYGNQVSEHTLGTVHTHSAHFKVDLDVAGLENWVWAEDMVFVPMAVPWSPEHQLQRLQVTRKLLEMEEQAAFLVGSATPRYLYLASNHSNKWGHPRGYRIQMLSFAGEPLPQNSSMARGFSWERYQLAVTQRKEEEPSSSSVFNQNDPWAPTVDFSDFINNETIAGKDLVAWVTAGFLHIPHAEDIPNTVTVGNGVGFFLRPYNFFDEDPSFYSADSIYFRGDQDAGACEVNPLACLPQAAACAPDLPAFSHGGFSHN
Description: Method to Determine the Ability of Compounds of Formula I to Inhibit Human Recombinant SSAO/VAP-1
Human recombinant SSAO/VAP-1 amine oxidase activity was determined using the coupled colorimetric method as described for monoamine oxidase, copper-containing amine oxidases and related enzymes (Holt A. and Palcic M., A peroxidase-coupled continuous absorbance plate-reader assay for flavin monoamine oxidases, copper-containing amine oxidases and related enzymes. Nat Protoc 2006; 1: 2498-2505). Briefly, a cloned cDNA template corresponding to residues 34-763 of human SSAO/VAP-1, and incorporating a mouse Ig kappa (κ) signal sequence, N-terminal flag epitope tag and tobacco etch virus (TEV) cleavage site, was assembled in a mammalian expression vector (pLO-CMV) by Geneart AG. This vector containing human SSAO/VAP-1 residues was transfected into CHO-K1 glycosylation mutant cell line, Lec 8. A clone stably expressing human SSAO/VAP-1 was isolated and cultured in large scale. Active human SSAO/VAP-I was purified and recovered using immunoaffinity chromatography. This was used as the source for SSAO/VAP-1 activity. A high-throughput colorimetric assay was developed using either 96 or 384 well format. Briefly, in a standard 96 well plate assay 50 μL of purified human SSAO/VAP-1 (0.25 μg/mL) in 0.1 M sodium phosphate buffer (pH 7.4) was added into each well. Test compounds were dissolved in DMSO and tested in a Concentration Response Curve (CRC) with 4-11 data points, typically in the micromolar or nanomolar range after incubation with human SSAO/VAP-1 for 30 min at 37° C. After 30 min incubation, 50 μL of the reaction mixture containing 600 μM benzylamine (Sigma Aldrich), 120 μM Amplex Red (Sigma Aldrich) and 1.5 U/mL horseradish peroxidase (Sigma Aldrich) prepared in 0.1 M sodium phosphate buffer (pH 7.4) were added to the corresponding well. The fluorescence unit (RFU) was read every 2.5 min for 30 min at 37° C. excitation 565 nm and emission 590 (Optima; BMG labtech). The slope of the kinetics for each well was calculated using MARS data analysis software (BMG labtech) and this value was used to deduce the IC50 value (Dotmatics).

| Compound | IC50 (Recombinant human MAO-B) | IC50 [1] |
| --- | --- | --- |
| Cc1nn(C/C(F)=C/CN)c(C(C)O)c1Cc1ccc(S(=O)(=O)N(C)C)c(Cl)c1 (single isomer, unassigned) [Compound 52, (Z)-4-((1-(4-amino-2-fluorobut-2-en-1-yl)-5-(1-hydroxyethyl)-3-methyl-1H-pyrazol-4-yl)methyl)-2-chloro-N,N-dimethylbenzenesulfonamide hydrochloride] | > 30 µM | > 30 µM |
| Cc1nn(C/C(F)=C/CN)c(C(C)O)c1Cc1ccc(S(=O)(=O)N(C)C)c(Cl)c1 (single isomer, unassigned) [Compound 53, (Z)-4-((1-(4-amino-2-fluorobut-2-en-1-yl)-5-(1-hydroxyethyl)-3-methyl-1H-pyrazol-4-yl)methyl)-2-chloro-N,N-dimethylbenzenesulfonamide hydrochloride] | > 30 µM | > 30 µM |
| N#CCCN [BAPN, β-aminopropionitrile, reference compound] | > 100 µM | > 100 µM |
| CN(C)S(=O)(=O)c1ccc(-c2cnn(C/C(F)=C/CN)c2)cc1 [Compound 1, (Z)-4-(1-(4-amino-2-fluorobut-2-en-1-yl)-1H-pyrazol-4-yl)-N,N-dimethyl benzenesulfonamide hydrochloride] | > 10 µM | < 10 µM |
| Cc1nn(C/C(F)=C/CN)c(C)c1Cc1ccc(S(=O)(=O)N(C)C)cc1 [Compound 2, (Z)-4-((1-(4-amino-2-fluorobut-2-en-1-yl)-3,5-dimethyl-1H-pyrazol-4-yl)methyl)-N,N-dimethylbenzenesulfonamide hydrochloride] | > 30 µM | > 30 µM |
| Cc1nn(C/C(F)=C/CN)c(C)c1Cc1ccc(S(=O)(=O)N(C)C)cc1Cl [Compound 3, (Z)-4-((1-(4-amino-2-fluorobut-2-en-1-yl)-3,5-dimethyl-1H-pyrazol-4-yl)methyl)-3-chloro-N,N-dimethylbenzenesulfonamide hydrochloride] | > 30 µM | > 30 µM |
| Cc1nn(C/C(F)=C/CN)c(C)c1Cc1ccc(S(C)(=O)=O)cc1 [Compound 4, (Z)-4-(3,5-dimethyl-4-(4-(methylsulfonyl)benzyl)-1H-pyrazol-1-yl)-3-fluorobut-2-en-1-amine hydrochloride] | > 30 µM | > 30 µM |
| Cc1nn(C/C(F)=C/CN)c(C)c1Cc1cccc(S(=O)(=O)N(C)C)c1 [Compound 5, (Z)-3-((1-(4-amino-2-fluorobut-2-en-1-yl)-3,5-dimethyl-1H-pyrazol-4-yl)methyl)-N,N-dimethyl benzenesulfonamide hydrochloride] | > 30 µM | > 30 µM |
| CC(C)c1nn(C/C(F)=C/CN)c(C(C)O)c1Cc1ccc(S(=O)(=O)N(C)C)c(Cl)c1 (centres unmarked) [Compound 59, (Z)-4-((1-(4-amino-2-fluorobut-2-en-1-yl)-5-(1-hydroxyethyl)-3-isopropyl-1H-pyrazol-4-yl)methyl)-2-chloro-N,N-dimethylbenzenesulfonamide hydrochloride] |  | > 30 µM |
| CC(C)c1nn(C/C(F)=C/CN)c(C(C)C)c1Cc1ccc(S(=O)(=O)N(C)C)c(Cl)c1 [Compound 60, (Z)-4-((1-(4-amino-2-fluorobut-2-en-1-yl)-3,5-diisopropyl-1H-pyrazol-4-yl)methyl)-2-chloro-N,N-dimethylbenzenesulfonamide hydrochloride] |  | > 30 µM |
| Cc1nn(C/C(F)=C/CN)c(C(=O)N(C)C)c1Cc1ccc(S(=O)(=O)N(C)C)c(Cl)c1 [Compound 61, (Z)-1-(4-amino-2-fluorobut-2-en-1-yl)-4-(3-chloro-4-(N,N-dimethylsulfamoyl)benzyl)-N,N,3-trimethyl-1H-pyrazole-5-carboxamide hydrochloride] |  | > 30 µM |
| Cc1nn(C/C(F)=C/CN)c(C(=O)NC(C)(C)C)c1Cc1ccc(S(=O)(=O)N(C)C)c(Cl)c1 [Compound 62, (Z)-1-(4-amino-2-fluorobut-2-en-1-yl)-N-(tert-butyl)-4-(3-chloro-4-(N,N-dimethylsulfamoyl)benzyl)-3-methyl-1H-pyrazole-5-carboxamide hydrochloride] |  | > 30 µM |
